Reference: patent US20260209249A1, “NOVEL TRICYCLIC COMPOUND AS KRAS G12D INHIBITOR, AND USE THEREOF” (SK Biopharmaceuticals Co., priority 2022, published 2026)

How the values were obtained:
[1] = target: T1, GppNHp-KRAS G12D mutant protein (Homo sapiens, UniProt P01116, G12D); test: Differential scanning fluorimetry (DSF) binding affinity to GppNHp-KRAS G12D mutant protein; details: DSF thermal shift, 10 μM compound, 4 μg KRAS protein, 50 mM HEPES (pH 7.5)
T1 construct: purchased Daegu Gyeongbuk Medical Innovation Foundation (DGMIF), made to order
Summary of the method: (§1)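 Each sample held 4 μg recombinant KRAS G12D (GDP- or GppNHp-bound) and 10 μM compound, incubated 30 min at room temperature before adding 2× SYPRO Orange. The GDP form was run in kit buffer, the GppNHp form in 50 mM HEPES pH 7.5. Melt was 25–99 °C at 0.05 °C/s (580/623 nm), reported as ΔTm versus no compound.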

[2] = target: T2, GDP-KRAS G12D mutant protein (Homo sapiens, UniProt P01116, G12D); test: Differential scanning fluorimetry (DSF) binding affinity to GDP-KRAS G12D mutant protein; details: DSF thermal shift, 10 μM compound, 4 μg KRAS protein
T2 construct: purchased Daegu Gyeongbuk Medical Innovation Foundation (DGMIF), made to order
Summary of the method: as §1

[3] = test system: ERK phosphorylation (pERK) induced by KRAS G12D mutation; test: Inhibitory activity against ERK phosphorylation (pERK) induced by KRAS G12D mutation, immunofluorescence assay in AsPC-1 cells; type: cell-based; details: Homo sapiens, ASPC1, 3 h drug treatment, pERK (Thr202/Tyr204) signal normalized to DAPI
Text: Test Example 2: Measurement of Inhibitory Activity Against ERK Phosphorylation (pERK) Induced by KRAS G12D Mutation (Immunofluorescence Assay)
Immunofluorescence is a method used to detect specific substances within cells or tissues through antigen-antibody interactions, and allows for the identification of the presence or absence of specific proteins by using antibodies labeled with various fluorescent dyes. After a primary antibody that recognizes a specific protein selectively binds to the epitope, a fluorescent antibody (secondary antibody) is bound to the primary antibody.
It was confirmed as follows that the compounds according to an embodiment of the present application inhibit phosphorylation of extracellular signal-regulated kinases (Phospho-ERK, pERK) induced by KRAS G12D mutation.
AsPC-1 cells were seeded at a density of 10,000 cells/well in RPMI-1640 medium containing 10% FBS and 1% Penicillin-Streptomycin in 384-well plates (Perkinelmer, #6057300) and allowed to attach for 16 h. After the cells attached to the plate, the cells were treated with drugs at a maximum concentration of 10 μM with a 3-fold serial dilution. After 3 h of drug treatment, the medium was removed and the cells were treated with 50 μL of 4% formaldehyde (Biosesang, #PC2031-050-00) for 20 min and washed three times with 50 μL of phosphate buffered saline (PBS).
50 μL of PBS containing 0.3% Triton X-100 (Sigma, #T8787-250 mL) was added and reacted for 20 minutes to allow antibody penetration into cells, and then the plate was washed three times with 50 μL of PBS. To block nonspecific binding of antibodies to the plate, 50 μL of PBS containing 2% BSA (sigma, #A7906-500G) and 0.01% Tween-20 (Sigma, #P1379-500 mL) (hereinafter referred to as PBS-T) was added, and reacted at room temperature for 2 hours.
To detect pERK, the primary antibody (cell signaling, #9101) was diluted 1:500 in PBS-T containing 2% BSA, 50 μL was added, and the plate was stored in a refrigerator at 4° C. for 16 hours to react, followed by washing three times with 50 μL of PBS-T. To visualize the primary antibody, the secondary antibody, i.e., anti-rabbit-Alexa Fluor 488 (ThermoFisher, #A11008), was diluted 1:1000 in PBS-T containing 2% BSA, 50 μL was added, and after reaction at room temperature for 1 hour, the plate was washed three times with 50 μL of PBS-T. Next, to visualize the nuclei of cells, DAPI (Thermofisher, #62248, 1 mg/mL) was diluted 1:1000 in PBS-T, 50 μL each was added, reacted at room temperature for 10 minutes, and washed three times with 50 μL of PBS-T. 50 μL of PBS-T was added to each well, and the plate was read for fluorescence value using HCS equipment (MOLECULAR DEVICES/ImageXpress Micro).
Data analysis was performed by normalizing the pERK (Thr202/Tyr204) signal to the DAPI signal and calculating the percentage relative to the DMSO as a control. The IC50 value was determined by fitting a four-parameter dose-response curve using the GraphPad Prism software (version 8.4.3), and interpolating the concentration at which 50% inhibition occurred. The results of calculating the inhibitory efficacy of the compounds according to one embodiment of the present application against KRAS G12D mutation-induced pERK activity are shown in Table 3.

[4] = test system: KRAS G12D mutant pancreatic cancer cell line AsPC-1; test: Cell viability assay using KRAS G12D mutant cells (AsPC-1, 3D culture, celltiter-glo 3D); type: cell-based; details: Homo sapiens, ASPC1, 5th day after compound treatment
Procedure: Test Example 3: Cell Viability Assay Using KRAS G12D Mutant Cells
The KRAS G12D mutant pancreatic cancer cell line AsPC-1 was obtained from the Korean Cell Line Bank (KCLB) and maintained in 100-mm dishes or T75 (75 cm^2) flasks using RPM11640+10% fetal bovine serum (FBS)+1% Penicillin-Streptomycin medium. The cells were cultured at 37° C. with 5% CO2. The number of viable cells was counted using Countess (Invitrogen).
When AsPC-1 cells reached 85-100% confluence in the flask, the cells were harvested using 1× trypsin/EDTA solution, and seeded into a 96-well plate for 3D culture at 1000 cells/100 μL/well. The next day, the compounds were diluted ⅕ with DMSO from 10 μM or 50 μM to 0.0001 μM or 0.0006 μM and treated 1:1 (v/v) in the plate where the cells were seeded.
Cell culture was terminated on the 5th day after compound treatment, and cell viability at each concentration was measured using the celltiter-glo 3D cell viability assay kit.
Cell viability assays were normalized to 100% for the DMSO-treated group and expressed as a percentage of the number of viable cells when treated with the compound.
Cell viability %=(average RLU of group treated with test substance−average RLU of untreated group)/(average RLU of group treated with DMSO−average RLU of untreated group)×100
The data were modeled using GraphPad Prism 9 (GraphPad Software) by applying a nonlinear regression curve fit with a four-parameter sigmoidal dose-response curve to determine cell viability as a function of compound concentration. The 50% inhibitory concentration (IC50) corresponds to the concentration at which the curve intersects the midpoint of cell viability. The results of the inhibitory effect of the compounds according to one embodiment of the present application on the viability of KRAS G12D mutant cells are presented in Table 4.

SMILES	GppNHp-KRAS G12D (ΔTmD, ° C.) [1] [°C]	GDP-KRAS G12D (ΔTmD, ° C.) [2] [°C]	IC50 [3] [nM]	IC50 [4] [nM]
C#Cc1c(F)ccc2cc(O)cc(-c3c(F)c4nc(OC[C@@]56CCCN5C/C(=C\F)C6)nc(N5C[C@H]6CC[C@@H](C5)N6)c4c4cn(C)nc34)c12 [Example 94, 4-(9-((1R,5S)-3,8-diazabicyclo[3.2.1]octan-3-yl)-5-fluoro-7-(((S,Z)-2-(fluoromethylene)tetrahydro-1H-pyrrolizin-7a(5H)-yl)methoxy)-2-methyl-2H-pyrazolo[4,3-f]quinazolin-4-yl)-5-ethynyl-6-fluoronaphthalen-2-ol]	12.28	17.46	18	14
Cc1cc2c(o1)c(-c1cc(O)cc3ccc(F)c(F)c13)c(F)c1nc(OC[C@@]34CCCN3C[C@H](F)C4)nc(N3C[C@H]4CC[C@@H](C3)N4)c12 [Example 46, 4-(1-((1R,5S)-3,8-diazabicyclo[3.2.1]octan-3-yl)-5-fluoro-3-(((2R,7aS)-2-fluorotetrahydro-1H-pyrrolizin-7a(5H)-yl)methoxy)-8-methylfuro[3,2-n]quinazolin-6-yl)-5,6-difluoronaphthalen-2-ol]			45	25
CCc1c(F)ccc2cc(O)cc(-c3cc4nc(OC[C@@]56CCCN5C[C@H](F)C6)nc(N5C[C@H]6CC[C@@H](C5)N6)c4n4ccnc34)c12 [Example 1, 4-(1-((1 R,5S)-3,8-diazabicyclo[3.2.1]octan-3-yl)-3-(((2R,7aS)-2-fluorotetrahydro-1H-pyrrolizin-7a(5H)-yl)methoxy)imidazo[1′,2′:1,6]pyrido[3,2-d]pyrimidin-6-yl)-5-ethyl-6-fluoronaphthalen-2-ol]	4.27	10.05	322	364
C#Cc1c(F)ccc2cc(O)cc(-c3cc4nc(OC[C@@]56CCCN5C/C(=C\F)C6)nc(N5C[C@H]6CC[C@@H](C5)N6)c4c4cn(C)nc34)c12 [Example 75, 4-(9-((1 R,5S)-3,8-diazabicyclo[3.2.1]octan-3-yl)-7-(((S,Z)-2-(fluoromethylene)tetrahydro-1H-pyrrolizin-7a(5H)-yl)methoxy)-2-methyl-2H-pyrazolo[4,3-f]quinazolin-4-yl)-5-ethynyl-6-fluoronaphthalen-2-ol]	9.60	13.74	20	34
C#Cc1c(F)ccc2cc(O)cc(-c3c(F)c4nc(OC[C@@]56CCCN5C[C@H](F)C6)nc(N5C[C@H]6CC[C@@H](C5)N6)c4c4cn(C)nc34)c12 [Example 80, 4-(9-((1R,5S)-3,8-diazabicyclo[3.2.1]octan-3-yl)-5-fluoro-7-(((2R,7aS)-2-fluorotetrahydro-1H-pyrrolizin-7a(5H)-yl)methoxy)-2-methyl-2H-pyrazolo[4,3-n]quinazolin-4-yl)-5-ethynyl-6-fluoronaphthalen-2-ol]	11.13	14.81	35	46
C#Cc1c(F)ccc2cc(O)cc(-c3cc4nc(OCC5(CN6C[C@@H]7C[C@H]6CO7)CC5)nc(N5C[C@H]6CC[C@@H](C5)N6)c4n4ccnc34)c12 [Example 12, 4-(3-((1-(((1S,4S)-2-oxa-5-azabicyclo[2.2.1]heptan-5-yl)methyl)cyclopropyl)methoxy)-1-((1 R,5S)-3,8-diazabicyclo[3.2.1]octan-3-yl)imidazo[1′,2′:1,6]pyrido[3,2-d]pyrimidin-6-yl)-5-ethynyl-6-fluoronaphthalen-2-ol]	2.65	9.61	1060	975
C#Cc1c(F)ccc2cc(O)cc(-c3c(F)c4nc(OC[C@]56CC(=C)CN5C[C@@H](F)C6)nc(N5C[C@H]6CC[C@@H](C5)N6)c4c4cc(C)oc34)c12 [Example 65, 4-(1-((1R,5S)-3,8-diazabicyclo[3.2.1]octan-3-yl)-5-fluoro-3-(((2S,7aR)-2-fluoro-6-methylenetetrahydro-1H-pyrrolizin-7a(5H)-yl)methoxy)-8-methylfuro[3,2-f]quinazolin-6-yl)-5-ethynyl-6-fluoronaphthalen-2-ol]	8.60	14.23	4	5
CCc1c(F)ccc2cc(O)cc(-c3c(F)c4nc(OC[C@@]56CCCN5C[C@H](F)C6)nc(N5C[C@H]6CC[C@@H](C5)N6)c4c4cn(C)nc34)c12 [Example 93, 4-(9-((1R,5S)-3,8-diazabicyclo[3.2.1]octan-3-yl)-5-fluoro-7-(((2R,7aS)-2-fluorotetrahydro-1H-pyrrolizin-7a(5H)-yl)methoxy)-2-methyl-2H-pyrazolo[4,3-n]quinazolin-4-yl)-5-ethyl-6-fluoronaphthalen-2-ol]	8.72	14.20	16	38
C#Cc1c(F)ccc2cc(O)cc(-c3c(F)c4nc(OC[C@@]56CCCN5C[C@H](F)C6)nc(NCC5(N(C)C)CCC5)c4c4cc(C)oc34)c12 [Example 48, 4-(1-(((1-(dimethylamino)cyclobutyl)methyl)amino)-5-fluoro-3-(((2R,7aS)-2-fluorotetrahydro-1H-pyrrolizin-7a(5H)-yl)methoxy)-8-methylfuro[3,2-n]quinazolin-6-yl)-5-ethynyl-6-fluoronaphthalen-2-ol]			333	136
CCc1c(F)ccc2cc(O)cc(-c3c(F)c4nc(OC[C@@]56CCCN5C[C@H](F)C6)nc(N5C[C@H]6CC[C@@H](C5)N6)c4c4cc(C)oc34)c12 [Example 45, 4-(1-((1R,5S)-3,8-diazabicyclo[3.2.1]octan-3-yl)-5-fluoro-3-(((2R,7aS)-2-fluorotetrahydro-1H-pyrrolizin-7a(5H)-yl)methoxy)-8-methylfuro[3,2-n]quinazolin-6-yl)-5-ethyl-6-fluoronaphthalen-2-ol]			70	37
